Results from patent publication US8883763B2 (Universite Joseph Fourier, priority 2010, dated 2014).

What was measured:
PP1α (PP1CA) = target: T1, PP1α (PP1CA) (Oryctolagus cuniculus, UniProt P62139); experiment: Protein phosphatase test (PP1 activity, DiFMUP fluorescent substrate); format: biochemical; conditions: PP1CA at 80 mU, fluorescent substrate (50 μM), molecules from 50 μM to 50 nM; read-out: PP1 Inhibition IC50
T1 construct: purchased New England Biolabs P0754
Procedure: FIG. 13 presents the graph showing the inhibition of the PP1Cα activity by compound 6 in vitro. PP1Cα (New England Biolabs, 30 mU/well) was incubated in the presence of compound 6 at different concentrations and a fluorescent substrate, diFMUP.
Determination of the 1050 was carried out with PP1CA at 80 mU in the presence of a fluorescent substrate
(50 μM) and different concentrations of molecules from 50 μM to 50 nM.
For the activity tests, PP1α (New England Biolabs # P0754) was used at a final concentration of 30 mU or 80 mU for the screening of all the analogues. 6,8-difluoro-4-methylumbelliferyl phosphate (DiFMUP, Invitrogen # D6567) was used as fluorescent substrate at a concentration of […]. All the tests were carried out in a final volume of 100 μl, at 37° C. in 96-microwell plates (Greiner #655096).
Compound 6, combretastatin A4 (CA-4) as well as all the analogues were diluted in 50 μl of PP1 buffer (100 mM Tris-HCl, pH 7.5, 4 mM DTT, 0.2 mM EDTA, 0.5 mM MnCl2) from 50 μM to 50 nM. Corresponding quantities of DMSO were added to control wells. PP1α (30 or 80 mU in 30 μl of PP1 buffer) was added to each well. After incubating for 15 minutes at AT, the substrate was added (in 20 μl of PP1 buffer). After incubating for 20 minutes at 37° C., the fluorescence was measured in a plate fluorometer at 355-460 nm in order to assay the phosphatase activity. The test was carried out three times in duplicate for each condition.

bovine brain tubulin = experiment: In vitro tubulin polymerization test (turbidimetry at 350 nm); format: biochemical; conditions: molecules at 50 μM, calculated at t=3000 s, DMSO control = 100%
Procedure: Tubulin was purified from bovine brain using the polymerization-depolymerization process described by (Castoldi M and Popov A V. Protein Expr Purif. 2003, 32(1): pp 83-8).
The in vitro tubulin polymerization tests (at 50 μM) were carried out in the presence of GTP 1 mM in BRB80 buffer (80 mM K-PIPES pH 6.8, 1 mM MgCl2, 1 mM EGTA) at 37° C. The tests were carried out in 96-microwell plates (half-wells) (Costar plates, Corning #3695), in triplicate with a final volume of 70 μl. Tubulin assembly was carried out in the presence of compound 6 or its analogues (all used at a concentration of 50 μM) and was monitored by turbidimetry measurement at 350 nm using a spectrophotometer (Spectramax More, Molecular Devices).
Measurement of the effect of a molecule on polymerization was calculated at t=3000 s taking the value of the control at the same time as being equal to 100%.

HeLa cells = experiment: Indirect immunofluorescence: effect on HeLa cells (mitotic arrest, microtubule depolymerization); format: cell-based, human; parameters: key to Effect on Hela at 25 μM / Effect on Hela at 100 μM / Effect on Hela at 50 and 100 μM / Effect on Hela at 50 μM: —: −: no activity on the cells at 25 μM (if there is an effect at high concentrations, this is specified in the table).; *: weak activity (MA and/or slight depolymerization of the MTs and/or slight inhibition of proliferation),; **: average activity (MA and/or moderate depolymerization of the MTs and/or moderate inhibition of proliferation),; ***: strong activity (MA and/or pronounced depolymerization of the MTs and/or pronounced inhibition of proliferation),; ****: very strong activity (MA and/or very pronounced depolymerization of the MTs and/or strong inhibition of proliferation); conditions: 24 hours; for Effect on Hela at 25 μM: mitotic index and/or depolymerization of the MTs
Procedure: The cells were cultured on slides in 24-well plates and incubated for 24 hours with molecule 6 at different concentrations from 1 to 10 μM.
Corresponding quantities of DMSO were added to the culture medium in the control wells.
The cells were fixed in a solution of PBS with 4% paraformaldehyde (PFA) and 0.1% glutaraldehyde (GA), for 15 minutes and centrifuged at 300 g for the last 10 minutes of the fixing. The slides were rinsed in PBS and the free aldehyde groups were reduced by two successive 5-minute incubations in PBS containing 1 mg/ml of NaBH4.
After one washing with PBS then another with PBST (PBS with 0.5% triton-X-100), the cells are incubated for 30 minutes at ambient temperature with anti α-tubulin monoclonal antibody solution (DM1A clone, Sigma # T6199) diluted to 1:200 in PBST. After 3 10-minute washings with PBST, the cells are incubated for 30 minutes at ambient temperature in a solution of goat anti-mouse polyclonal antibodies coupled with Alexa 488 (1:1000, Molecular Probes # A-11029) and phalloidin coupled with Texas red to label the actin (1:2000, Molecular Probes # T7471), in PBST also containing Hoechst 33258 (1 μg/ml) for labelling the DNA. After 3 10-minute washings in PBST, the slides are mounted on plates in Fluorsave™ mounting medium (Calbiochem #345789) and are observed and analyzed using an Axiovert 200M inverted fluorescence microscope (Zeiss®). The images are produced with a Plan-Apochromat 63× oil objective (Zeiss®) by means of a Coolsnap HQ camera (Roper Scientifics®) and with Metamorph acquisition software (Universal Imaging™ Corporation).
In order to evaluate the effect of the analogues of compound 6 on PHFs and HeLa cells, the immunofluorescence technique described above was used and adapted to a 96-well dish format. The cells were seeded in glass-bottomed 96-well dishes and incubated for 24 hours in the presence of different concentrations of molecules from 100 μM to 50 nM. And in the same way as described above, the cells were fixed and immunolabelled. Analysis of the phenotypes as well as counting the mitotic cells were carried out with the same microscope but using a ×40 objective (Olympus). The molecules were compared with each other with respect to the mitotic arrest induced on PHFs and HeLa cells at 25 and 0.3 μM.
The mitotic index and/or the depolymerization of the MTs were evaluated at 25 μM.

HMEC cells = experiment: Proliferation of HMEC cells (GI50); format: cell-based; conditions: Homo sapiens, 120 h, 50 μM to 1 nM for 5 days
Procedure: The HMECs were seeded at 10% confluence and incubated with the molecules at different concentrations (from 50 μM to 1 nM) for 5 days. The GI50 (50% Growth Inhibition) defines the concentration inducing a 50% reduction in proliferation with respect to the control.

T1 sequence (P62139 whole entry): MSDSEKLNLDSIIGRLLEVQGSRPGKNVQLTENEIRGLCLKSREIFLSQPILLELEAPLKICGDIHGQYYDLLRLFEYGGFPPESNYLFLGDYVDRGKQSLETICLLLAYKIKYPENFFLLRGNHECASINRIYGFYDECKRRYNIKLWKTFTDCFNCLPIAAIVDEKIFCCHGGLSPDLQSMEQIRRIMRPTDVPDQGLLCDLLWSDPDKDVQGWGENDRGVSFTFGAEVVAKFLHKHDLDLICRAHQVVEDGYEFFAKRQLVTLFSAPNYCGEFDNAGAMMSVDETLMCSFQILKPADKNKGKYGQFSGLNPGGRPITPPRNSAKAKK

In the case of `COC(=O)c1nnn(-c2c(-c3ccc(OC)cc3)[nH]c(=O)c3cc(OC)ccc23)c1C(=O)OC` [Compound 48, Dimethyl 1-[7-methoxy-3-(4-methoxyphenyl)-1-oxo-1,2-dihydroisoquinolin-4-yl]-1H-[1,2,3]triazole-4,5-dicarboxylate], the IC50 (PP1α (PP1CA)) is reported as over 50 µM, the Tubulin polymerization inhibition (bovine brain tubulin) is reported as “— ((−) signifies that the molecule induces little or no tubulin assembly inhibition in vitro: 0+ or − −5% of the DMSO control.)” and the “Effect on Hela at 25 μM” value (HeLa cells) is reported as “—”. The “Effect on Hela at 50 μM” value (HeLa cells; 50 μM) was “*”, the GI50 (HMEC cells) was 25 to 50 µM and the melting point was 220 °C.
With `COc1ccc(-c2nc(Cl)c3cc(OC)ccc3c2[N+](=O)[O-])cc1` [Compound 17, 1-Chloro-7-methoxy-3-(4-methoxyphenyl)-4-nitroisoquinoline] the IC50 (PP1α (PP1CA)) was over 50 µM, the Tubulin polymerization inhibition (bovine brain tubulin) was “++ ((++) signifies that the molecule induces tubulin assembly inhibition in vitro comprised between 26 and 50% of the DMSO control.)” and the “Effect on Hela at 25 μM” value (HeLa cells) was “—”. It also gave a GI50 (HMEC cells) of 25 to 50 µM and a melting point of 196 to 198 °C.
With `COc1ccc2c([N+](=O)[O-])c(-c3ccc(OCc4ccccc4)cc3)[nH]c(=O)c2c1` [Compound 46, 3-(4-(Benzyloxy)phenyl)-7-methoxy-4-nitroisoquinolin-1(2H)-one] the IC50 (PP1α (PP1CA)) was 10 to 24 µM, the Tubulin polymerization inhibition (bovine brain tubulin) was “+ ((+) signifies that the molecule induces tubulin assembly inhibition in vitro comprised between 6 and 25% of the DMSO control.)” and the “Effect on Hela at 25 μM” value (HeLa cells) was “—”. It also gave a GI50 (HMEC cells) of over 50 µM and a melting point of 252 to 254 °C.
In the case of `COc1ccc(-c2[nH]c(=O)c3cc(OC)ccc3c2-n2cccc2)cc1` [Compound 39, 4-(Pyrrol-1-yl)-7-methoxy-3-(4-methoxyphenyl)isoquinoline-1(2H)-one], the IC50 (PP1α (PP1CA)) is reported as 10 to 24 µM, the Tubulin polymerization inhibition (bovine brain tubulin) is reported as “+ ((+) signifies that the molecule induces tubulin assembly inhibition in vitro comprised between 6 and 25% of the DMSO control.)” and the “Effect on Hela at 25 μM” value (HeLa cells) is reported as “—”. It also gave a GI50 (HMEC cells) of 0.1 to 1 µM and a melting point of 238 °C.
In the case of `COc1ccc2c([N+](=O)[O-])c(-c3ccc(Br)cc3)[nH]c(=O)c2c1` [Compound 34, 3-(4-Bromophenyl)-7-methoxy-4-nitroisoquinolin-1(2H)-one], the IC50 (PP1α (PP1CA)) is reported as 25 to 50 µM, the Tubulin polymerization inhibition (bovine brain tubulin) is reported as “+++ ((+++) signifies that the molecule induces tubulin assembly inhibition in vitro of more than 50% with respect to the DMSO control.)” and the “Effect on Hela at 25 μM” value (HeLa cells) is reported as “***”. The GI50 (HMEC cells) was at most 0.1 µM and the melting point was 222 to 224 °C.
For `COc1ccc(-c2[nH]c(=O)c3cc(OC)ccc3c2NC=O)cc1` [Compound 24, N-(7-Methoxy-3-(4-methoxyphenyl)-1-oxo-1,2-dihydroisoquinoline-4-yl)methanamide], the IC50 (PP1α (PP1CA)) was over 50 µM, the Tubulin polymerization inhibition (bovine brain tubulin) was “+ ((+) signifies that the molecule induces tubulin assembly inhibition in vitro comprised between 6 and 25% of the DMSO control.)” and the “Effect on Hela at 25 μM” value (HeLa cells) was “****”. It also gave a GI50 (HMEC cells) of 1 to 25 µM and a melting point of over 270 °C.
With `COc1ccc2c([N+](=O)[O-])c(-c3ccc(C#C[Si](C)(C)C)cc3)[nH]c(=O)c2c1` [Compound 35, 7-Methoxy-4-nitro-3-(4-((trimethylsilyl)ethynyl)phenyl)isoquinolin-1(2H)-one] the IC50 (PP1α (PP1CA)) was 10 to 24 µM, the Tubulin polymerization inhibition (bovine brain tubulin) was “— ((−) signifies that the molecule induces little or no tubulin assembly inhibition in vitro: 0+ or − −5% of the DMSO control.)” and the “Effect on Hela at 25 μM” value (HeLa cells) was “***”. It also gave a GI50 (HMEC cells) of at most 0.1 µM and a melting point of 178 to 180 °C.
With `COc1ccc2cc(-c3ccc(C#C[Si](C)(C)C)cc3)[nH]c(=O)c2c1` [Compound 33, 7-Methoxy-3-(4-((trimethylsilyl)ethynyl)phenyl)isoquinolin-1(2H)-one] the IC50 (PP1α (PP1CA)) was over 50 µM, the Tubulin polymerization inhibition (bovine brain tubulin) was “— ((−) signifies that the molecule induces little or no tubulin assembly inhibition in vitro: 0+ or − −5% of the DMSO control.)” and the “Effect on Hela at 25 μM” value (HeLa cells) was “—”. It also gave a GI50 (HMEC cells) of 25 to 50 µM and a melting point of 133 to 135 °C.
In the case of `COc1ccc(-c2cc3ccc(OC)cc3c(S(=O)(=O)O)n2)cc1` [Compound 13, 7-methoxy-3-(4-methoxyphenyl)isoquinoline-1-sulphonic acid], the IC50 (PP1α (PP1CA)) is reported as over 50 µM, the Tubulin polymerization inhibition (bovine brain tubulin) is reported as “++ ((++) signifies that the molecule induces tubulin assembly inhibition in vitro comprised between 26 and 50% of the DMSO control.)” and the “Effect on Hela at 25 μM” value (HeLa cells) is reported as “—”. The “Effect on Hela at 100 μM” value (HeLa cells; 100 μM) was “*”, the GI50 (HMEC cells) was over 50 µM and the melting point was 226 to 228 °C.
With `COc1ccc(-c2[nH]c(=O)c3cc(OC)ccc3c2I)cc1` [Compound 16, 4-Iodo-7-methoxy-3-(4-methoxyphenyl)isoquinoline-1(2H)-one] the IC50 (PP1α (PP1CA)) was over 50 µM, the Tubulin polymerization inhibition (bovine brain tubulin) was “+++ ((+++) signifies that the molecule induces tubulin assembly inhibition in vitro of more than 50% with respect to the DMSO control.)” and the “Effect on Hela at 25 μM” value (HeLa cells) was “***”. The GI50 (HMEC cells) was 0.1 to 1 µM and the melting point was 216 to 218 °C.
With `COc1ccc2cc(-c3ccc(OCc4ccccc4)cc3)[nH]c(=O)c2c1` [Compound 44, 3-(4-(Benzyloxy)phenyl)-7-methoxyisoquinolin-1(2H)-one] the IC50 (PP1α (PP1CA)) was 10 to 24 µM, the Tubulin polymerization inhibition (bovine brain tubulin) was “— ((−) signifies that the molecule induces little or no tubulin assembly inhibition in vitro: 0+ or − −5% of the DMSO control.)” and the “Effect on Hela at 25 μM” value (HeLa cells) was “—”. For the same compound, the GI50 (HMEC cells) was 25 to 50 µM and the melting point was over 260 °C.
For `COc1ccc(-c2[nH]c(=S)c3cc(OC)ccc3c2[N+](=O)[O-])cc1` [Compound 18, 7-Methoxy-3-(4-methoxyphenyl)-4-nitroisoquinoline-1(2H)-thione], the IC50 (PP1α (PP1CA)) was 10 to 24 µM, the Tubulin polymerization inhibition (bovine brain tubulin) was “+++ ((+++) signifies that the molecule induces tubulin assembly inhibition in vitro of more than 50% with respect to the DMSO control.)” and the “Effect on Hela at 25 μM” value (HeLa cells) was “****”. For the same compound, the GI50 (HMEC cells) was 1 to 25 µM and the melting point was 226 to 228 °C.
